In US20230312616A1, “MODULATORS OF CYSTIC FIBROSIS TRANSMEMBRANE CONDUCTANCE REGULATOR” (priority 2018, published 2023):

System: CFTR
Test: CFTR modulating activity, generated using one or more of the assays disclosed (e.g. membrane potential dye assay in enteroid cells)
Format: cell-based, human
Details: one or more of the assays disclosed herein; qualitative (Active / ND)
From the text: Human intestinal epithelial enteroid cells may be obtained from the Hubrecht Institute for Developmental Biology and Stem Cell Research, Utrecht, The Netherlands and expanded in T-Flasks as previously described (Dekkers JF, Wiegerinck CL, de Jonge HR, Bronsveld I, Janssens HM, de Winter-de Groot KM, Brandsma AM, de Jong NWM, Bijvelds MJC, Scholte BJ, Nieuwenhuis EES, van den Brink S, Clevers H, van der Ent CK, Middendorp S and M Beekman JM. A functional CFTR assay using primary cystic fibrosis intestinal organoids. Nat Med. 2013 Jul;19(7):939-45.).
Cells may be recovered in cell recovery solution, collected by centrifugation at 650 rpm for 5 min at 4° C., resuspended in TryPLE and incubated for 5 min at 37° C. Cells can then be collected by centrifugation at 650 rpm for 5 min at 4° C. and resuspended in IEMM containing 10 µM ROCK inhibitor (RI). The cell suspension is then passed through a 40 µm cell strainer and resuspended at 1x10^6 cells/mL in IEMM containing 10 µM RI. Cells may be seeded at 5000 cells/well into multi-well plates and incubated for overnight at 37° C., 95% humidity and 5% CO2 prior to assay.
Enteroid cells may be incubated with test compound in IEMM for 18-24 hours at 37° C., 95% humidity and 5% CO2. Following compound incubations, a membrane potential dye assay can be employed using a FLIPR Tetra to directly measure the potency and efficacy of the test compound on CFTR-mediated chloride transport following acute addition of 10 µM forskolin and 300 nM N-[2,4-bis(1,1-dimethylethyl)-5-hydroxyphenyl]-1,4-dihydro-4-oxoquinoline-3-carboxamide. Briefly, cells aree washed 5 times in Bath 1 Buffer. Bath 1 Dye Solution is added and the cells are incubated for 25 min at room temperature. Following dye incubation, cells are washed 3 times in Chloride Free Dye Solution. Chloride transport is initiated by addition of Chloride Free Dye Stimulation Solution and the fluorescence signal is read for 15 min. The CFTR-mediated chloride transport for each condition may be determined from the AUC of the fluorescence response to acute forskolin and 300 nM N-[2,4-bis(1,1-dimethylethyl)-5-hydroxyphenyl]-1,4-dihydro-4-oxoquinoline-3-carboxamide stimulation.
Chloride transport may be expressed as a percentage of the chloride transport following treatment with one or more reference standards or positive controls. Suitable reference standards/controls include one or more of Compound II, Compound III, Compound IV, and Compound A. Compound A is:
Table 6 confirms CFTR modulating activity for representative compounds of the invention generated using one or more of the assays disclosed herein.

Compound	CFTR Modulating Activity
CC1(C)CC([Si](C)(C)C)CN1c1nc(-n2ccc(OCCC3(C(F)(F)F)CC3)n2)ccc1C(=O)NS(=O)(=O)c1ccccc1 (single isomer, unassigned) [2-13 Enantiomer 1, N-(Benzenesulfonyl)-2-(2,2-dimethyl-4-trimethylsilyl-pyrrolidin-1-yl)-6-[3-[2-[1-(Trifluoromethyl)Cyclopropyl]Ethoxy]Pyrazol-1-yl]Pyridine-3-carboxamide]	Active
C[C@@H]1CN(c2nc(-n3ccc(OCCC4(C(F)(F)F)CC4)n3)ccc2C(=O)NS(=O)(=O)c2cccc([Si](C)(C)C)c2)C(C)(C)C1 [Compound 2-17, 6-[3-[2-[1-(Trifluoromethyl)Cyclopropyl]Ethoxy]Pyrazol-1-yl]-2-[(4S)-2,2,4-trimethylpyrrolidin-1-yl]-N-(3-trimethylsilylphenyl)Sulfonyl-pyridine-3-carboxamide]	Active
C[C@@H]1CN(c2nc(-n3ccc(OC[Si](C)(C)C)n3)ccc2C(=O)NS(=O)(=O)c2ccccc2)C(C)(C)C1 [Compound 2-11, N-(Benzenesulfonyl)-2-[(4S)-2,2,4-trimethylpyrrolidin-1-yl]-6-[3-(Trimethylsilylmethoxy)Pyrazol-1-yl]Pyridine-3-carboxamide]	Active
Cc1ccc([Si](C)(C)c2ccc(C(=O)NS(=O)(=O)c3ccccc3)c(N3C[C@@H](C)CC3(C)C)n2)cc1 [Compound 2-4, N-(Benzenesulfonyl)-6-[Dimethyl(p-tolyl)Silyl]-2-[(4S)-2,2,4-trimethylpyrrolidin-1-yl]pyridine-3-carboxamide]	Active
C[C@@H]1CN(c2nc(-n3ccc([Si](C)(C)C(C)(C)C)n3)ccc2C(=O)NS(=O)(=O)c2ccccc2)C(C)(C)C1 [Compound 2-14, N-(benzenesulfonyl)-6-[3-[Tert-butyl(Dimethyl)Silyl]Pyrazol-1-yl]-2-[(4S)-2,2,4-trimethylpyrrolidin-1-yl]Pyridine-3-carboxamide]	Active
C[C@@H]1CN(c2nc(-n3ccc(OCC[Si](C)(C)C)n3)ccc2C(=O)NS(=O)(=O)c2ccccc2)C(C)(C)C1 [Compound 2-7, N-(Benzenesulfonyl)-2-[(4S)-2,2,4-trimethylpyrrolidin-1-yl]-6-[3-(2-trimethylsilylethoxy)Pyrazol-1-yl]Pyridine-3-carboxamide]	Active
C[C@@H]1CN(c2nc(-n3ccc(OCCC4(C(F)(F)F)CC4)n3)ccc2C(=O)NS(=O)(=O)c2ccccc2)C(C)([Si](C)(C)C)C1 (single isomer, unassigned) [2-10 Isomer 2]	Active
C[C@@H]1CN(c2nc(-n3ccc(OCCC[Si](C)(C)C)n3)ccc2C(=O)NS(=O)(=O)c2ccccc2)C(C)(C)C1 [Compound 2-9, N-(Benzenesulfonyl)-2-[(4S)-2,2,4-trimethylpyrrolidin-1-yl]-6-[3-(3-trimethylsilylpropoxy)Pyrazol-1-yl]Pyridine-3-carboxamide]	Active
C[C@@H]1CN(c2nc(-n3ccc([Si](C)(C)CCC(F)(F)F)n3)ccc2C(=O)NS(=O)(=O)c2ccccc2)C(C)(C)C1 [Compound 2-12, N-(Benzenesulfonyl)-6-[3-[Dimethyl(3,3,3-trifluoropropyl)Silyl]Pyrazol-1-yl]-2-[(4S)-2,2,4-trimethylpyrrolidin-1-yl]Pyridine-3-carboxamide]	Active
C[C@@H]1CN(c2nc(-n3ccc(OC[Si](C)(C)C(C)(C)C)n3)ccc2C(=O)NS(=O)(=O)c2ccccc2)C(C)(C)C1 [Compound 2-15, N-(Benzenesulfonyl)-6-[3-[[tert-butyl(dimethyl)silyl]methoxy]pyrazol-1-yl]-2-[(4S)-2,2,4-trimethylpyrrolidin-1-yl]pyridine-3-carboxamide]	Active
C[C@@H]1CN(c2nc([Si](C)(C)CCC(C)(C)C)ccc2C(=O)NS(=O)(=O)c2ccccc2)C(C)(C)C1 [Compound 2-3, N-(benzenesulfonyl)-6-[3,3-dimethylbutyl(dimethyl)silyl]-2-[(4S)-2,2,4-trimethylpyrrolidin-1-yl]pyridine-3-carboxamide]	Active
C[C@@H]1CN(c2nc(-n3ccc(OCCC4(C(F)(F)F)CC4)n3)c([Si](C)(C)C)cc2C(=O)NS(=O)(=O)c2ccccc2)C(C)(C)C1 [Compound 2-1, N-(Benzenesulfonyl)-6-[3-[2-[1-(Trifluoromethyl)Cyclopropyl]Ethoxy]Pyrazol-1-yl]-2-[(4S)-2,2,4-trimethylpyrrolidin-1-yl]-5-trimethylsilyl-pyridine-3-carboxamide]	Active
C[C@@H]1CN(c2nc([Si](C)(C)c3ccccc3)ccc2C(=O)NS(=O)(=O)c2ccccc2)C(C)(C)C1 [Compound 2-2, N-(Benzenesulfonyl)-6-[Dimethyl(Phenyl)Silyl]-2-[(4S)-2,2,4-trimethylpyrrolidin-1-yl]Pyridine-3-carboxamide]	Active
C[C@@H]1CN(c2nc(-n3ccc(OCC(C)(C)C(F)(F)F)n3)ccc2C(=O)NS(=O)(=O)c2cccc([Si](C)(C)C)c2)C(C)(C)C1 [Compound 2-16, 6-[3-(3,3,3-trifluoro-2,2-dimethyl-propoxy)pyrazol-1-yl]-2-[(4S)-2,2,4-trimethylpyrrolidin-1-yl]—N—(3-trimethylsilylphenyl)sulfonyl-pyridine-3-carboxamide]	Active
C[C@@H]1CN(c2nc(-n3ccc([Si](C)(C)CCC(C)(C)C)n3)ccc2C(=O)NS(=O)(=O)c2ccccc2)C(C)(C)C1 [Compound 2-5, N-(Benzenesulfonyl)-6-[3-[3,3-dimethylbutyl(Dimethyl)Silyl]Pyrazol-1-yl]-2-[(4S)-2,2,4-trimethylpyrrolidin-1-yl]Pyridine-3-carboxamide]	Active
C[C@@H]1CN(c2nc(-n3ccc(OCCC4([Si](C)(C)C)CC4)n3)ccc2C(=O)NS(=O)(=O)c2ccccc2)C(C)(C)C1 [Compound 2-6, N-(Benzenesulfonyl)-2-[(4S)-2,2,4-trimethylpyrrolidin-1-yl]-6-[3-[2-(1-trimethylsilylcyclopropyl)Ethoxy]Pyrazol-1-yl] Pyridine-3-carboxamide]	Active
C[C@@H]1CN(c2nc([Si](C)(C)C)ccc2C(=O)NS(=O)(=O)c2ccccc2)C(C)(C)C1 [Compound 2-8, N-(Benzenesulfonyl)-2-[(4S)-2,2,4-trimethylpyrrolidin-1-yl]-6-trimethylsilyl-pyridine-3-carboxamide]	Active
C[C@@H]1CN(c2nc(-n3ccc([Si](C)(C)C)n3)ccc2C(=O)NS(=O)(=O)c2ccccc2)C(C)(C)C1 [Compound 2-18, N-(benzenesulfonyl)-2-[(4S)-2,2,4-trimethylpyrrolidin-1-yl]-6-(3-trimethylsilylpyrazol-1-yl)pyridine-3-carboxamide]	Active
